Data reported in patent EP2423181A1, “Multitarget substituted biphenyl diol derivatives” (PROUS INSTITUTE FOR BIOMEDICAL RESEARCH S.A., priority 2010, dated 2012).
Structures can show the parent of a compound that is named as a salt. Where two headings read alike, the source gives them in different places.

Legend:
[1] = system: mice; details: formalin test, active dose of external active reference, cited from earlier work; for Dose (mg / Kg) Early Response: p.o.; for Dose (mg / Kg) Late Response: route not given
[2] = Maximum Tolerated Dose after acute administration; details: mouse, in vivo, po, mice
Procedure: The Maximum Tolerated Dose (MTD) in mice was determined for selected compounds. The protocol of the studies was in accordance with the standard guidelines for drug development: • (htp://dtp.nci.nih.gov/branches/btb/acute tox.html). Table 10. Maximum Tolerated Doses in mice after acute i.p. administration

[3] = target: T1, COX-1 (Homo sapiens, UniProt P23219); assay: COX-1 inhibition in human platelets (PGE2 enzyme immunoassay); type: biochemical; details: read-out: % COX-1 Inhibition
T1 construct: endogenous in cells; host or cells: human platelets
T1 sequence (P23219 24-599): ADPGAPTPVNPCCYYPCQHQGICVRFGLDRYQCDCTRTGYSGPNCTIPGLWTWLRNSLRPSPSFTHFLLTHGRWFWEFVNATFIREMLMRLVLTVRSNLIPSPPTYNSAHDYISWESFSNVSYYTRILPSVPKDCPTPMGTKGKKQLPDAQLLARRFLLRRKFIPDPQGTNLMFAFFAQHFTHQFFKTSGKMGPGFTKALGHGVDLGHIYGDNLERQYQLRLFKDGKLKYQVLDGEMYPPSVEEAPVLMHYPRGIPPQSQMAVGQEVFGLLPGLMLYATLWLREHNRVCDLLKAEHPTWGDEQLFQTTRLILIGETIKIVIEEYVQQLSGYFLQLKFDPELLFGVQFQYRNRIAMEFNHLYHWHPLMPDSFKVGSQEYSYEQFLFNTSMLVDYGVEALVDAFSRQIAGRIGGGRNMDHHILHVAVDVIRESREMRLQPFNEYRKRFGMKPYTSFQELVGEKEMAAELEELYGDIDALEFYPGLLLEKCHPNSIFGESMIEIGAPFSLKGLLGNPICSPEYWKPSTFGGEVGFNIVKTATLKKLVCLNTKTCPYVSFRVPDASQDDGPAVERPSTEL
Procedure: (§1) The COX-1 inhibitory activity of representative compounds of the invention was determined according to previously reported methods. COX-1 activity was assessed in human platelets using 100 µM arachidonic acid as a substrate and preincubation and incubation times of 15 min at 37 °C in HBSS, 15 mM HEPES pH 7.4 . The quantification method used was enzyme immunoassay determination of PGE2 (Chan, C.C. et al. J Pharmacol Exp Ther, 1999, 290, 551-560; Swinney, D.C. et al. J Biol Chem, 1997, 272, 12393-12398; Warner, T.D. et al. Proc Natl Acad Sci U S A, 1999, 96, 7563-7568; Riendeau, D. et al. Can J Physiol Pharmacol, 1997, 75, 1088-1095). COX-2 inhibitory activity was determined in human recombinant insect Sf21 cells according to references (Warner, T.D. et al., Proc Natl Acad Sci, USA. 1999;96(13):7563-7568; Riendeau, D. et al., Can J Physiol Pharmacol, 1997 ;75(9):1088-1095). Briefly, the COX-2 inhibitory activity was assessed on human recombinant insect Sf21 cells using 0.3 µM arachidonic acid as a substrate and preincubation and incubation times of 15 and 5 min, respectively, at 37 °C in 100 mM Tris-HCl, pH 7.7. The quantification method used was enzyme immunoassay determination of PGE2. Table 11. Inhibition of COX-1 and COX-2 at 10 µM

[4] = target: T2, 5-LO (Homo sapiens, UniProt P09917); assay: 5-Lipoxygenase inhibition (LTB4 enzyme immunoassay); type: biochemical
T2 construct: host or cells: Sf9 insect cells
T2 sequence (P09917 1-674): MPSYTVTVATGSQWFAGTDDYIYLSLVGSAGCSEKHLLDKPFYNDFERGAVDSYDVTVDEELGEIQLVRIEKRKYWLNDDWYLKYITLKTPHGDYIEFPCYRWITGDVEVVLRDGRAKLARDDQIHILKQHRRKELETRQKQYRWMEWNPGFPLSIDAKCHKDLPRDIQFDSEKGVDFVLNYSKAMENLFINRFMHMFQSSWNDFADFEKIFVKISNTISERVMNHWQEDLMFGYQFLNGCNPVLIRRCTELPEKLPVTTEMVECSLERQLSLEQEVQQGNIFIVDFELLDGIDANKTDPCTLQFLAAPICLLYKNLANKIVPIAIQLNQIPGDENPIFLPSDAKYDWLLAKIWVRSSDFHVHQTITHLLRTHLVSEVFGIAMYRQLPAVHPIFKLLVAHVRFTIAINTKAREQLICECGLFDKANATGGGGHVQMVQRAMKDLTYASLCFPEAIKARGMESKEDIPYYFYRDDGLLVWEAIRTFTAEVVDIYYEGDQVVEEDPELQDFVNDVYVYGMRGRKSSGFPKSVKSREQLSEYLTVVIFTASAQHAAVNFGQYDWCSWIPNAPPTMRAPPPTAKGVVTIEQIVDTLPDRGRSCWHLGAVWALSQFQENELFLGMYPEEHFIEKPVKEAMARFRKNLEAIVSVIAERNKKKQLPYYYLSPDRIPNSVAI
Procedure: The 5-LO-inhibitory activity of compounds of the invention was determined using previously reported assays. Briefly, lipoxygenase activity was evaluated in human recombinant insect Sf9 cells using 3µM arachidonic acid as a substrate with a preincubation and incubation times of 15 and 5 min respectively at 25°C in a 50 mM Tris-HCl, pH 7.4, 2 mM CaCl2, 1 mM ATP. The quantification method used was enzyme immunoassay determination of LTB4 and the significance criteria were established with a response equal or different of the maximum stimulation or inhibition (Noguchi, M. et al., Eur J Biochem, 1994, 222(2), 285-292; Percival, M.D. et al., Eur J Biochem, 1992, 210(1), 109-117).

[5] = target: T3, COX-2 (Homo sapiens, UniProt P35354); assay: COX-2 inhibition (PGE2 enzyme immunoassay); type: biochemical; details: read-out: % COX-2 inhibition
T3 construct: host or cells: Sf21 insect cells
T3 sequence (P35354 18-604): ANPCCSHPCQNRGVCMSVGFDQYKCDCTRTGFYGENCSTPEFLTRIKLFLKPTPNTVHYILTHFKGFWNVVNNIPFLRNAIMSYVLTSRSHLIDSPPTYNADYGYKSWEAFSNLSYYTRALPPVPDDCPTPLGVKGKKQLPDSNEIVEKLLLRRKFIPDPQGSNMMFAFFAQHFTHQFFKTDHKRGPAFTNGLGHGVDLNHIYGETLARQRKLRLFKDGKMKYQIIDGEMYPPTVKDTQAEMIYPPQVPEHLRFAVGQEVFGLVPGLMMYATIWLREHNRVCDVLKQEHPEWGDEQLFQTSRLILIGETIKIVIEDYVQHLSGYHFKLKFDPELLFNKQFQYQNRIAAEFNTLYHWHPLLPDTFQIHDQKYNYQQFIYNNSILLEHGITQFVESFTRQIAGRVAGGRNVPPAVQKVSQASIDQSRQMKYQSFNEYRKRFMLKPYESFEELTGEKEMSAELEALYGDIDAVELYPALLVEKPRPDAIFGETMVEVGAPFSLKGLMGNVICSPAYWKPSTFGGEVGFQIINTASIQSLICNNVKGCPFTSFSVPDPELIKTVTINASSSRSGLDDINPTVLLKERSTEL
Procedure: as §1

[6] = target: T4, EGFR (Homo sapiens, UniProt P00533); assay: EGF receptor tyrosine-protein kinase inhibition (ELISA of Poly[Glu:Tyr-P]); type: biochemical
T4 construct: EGF receptor tyrosin-protein kinase activity was assessed in human A431 cells; endogenous in cells; host or cells: human A431 cells
T4 sequence (P00533 25-1210): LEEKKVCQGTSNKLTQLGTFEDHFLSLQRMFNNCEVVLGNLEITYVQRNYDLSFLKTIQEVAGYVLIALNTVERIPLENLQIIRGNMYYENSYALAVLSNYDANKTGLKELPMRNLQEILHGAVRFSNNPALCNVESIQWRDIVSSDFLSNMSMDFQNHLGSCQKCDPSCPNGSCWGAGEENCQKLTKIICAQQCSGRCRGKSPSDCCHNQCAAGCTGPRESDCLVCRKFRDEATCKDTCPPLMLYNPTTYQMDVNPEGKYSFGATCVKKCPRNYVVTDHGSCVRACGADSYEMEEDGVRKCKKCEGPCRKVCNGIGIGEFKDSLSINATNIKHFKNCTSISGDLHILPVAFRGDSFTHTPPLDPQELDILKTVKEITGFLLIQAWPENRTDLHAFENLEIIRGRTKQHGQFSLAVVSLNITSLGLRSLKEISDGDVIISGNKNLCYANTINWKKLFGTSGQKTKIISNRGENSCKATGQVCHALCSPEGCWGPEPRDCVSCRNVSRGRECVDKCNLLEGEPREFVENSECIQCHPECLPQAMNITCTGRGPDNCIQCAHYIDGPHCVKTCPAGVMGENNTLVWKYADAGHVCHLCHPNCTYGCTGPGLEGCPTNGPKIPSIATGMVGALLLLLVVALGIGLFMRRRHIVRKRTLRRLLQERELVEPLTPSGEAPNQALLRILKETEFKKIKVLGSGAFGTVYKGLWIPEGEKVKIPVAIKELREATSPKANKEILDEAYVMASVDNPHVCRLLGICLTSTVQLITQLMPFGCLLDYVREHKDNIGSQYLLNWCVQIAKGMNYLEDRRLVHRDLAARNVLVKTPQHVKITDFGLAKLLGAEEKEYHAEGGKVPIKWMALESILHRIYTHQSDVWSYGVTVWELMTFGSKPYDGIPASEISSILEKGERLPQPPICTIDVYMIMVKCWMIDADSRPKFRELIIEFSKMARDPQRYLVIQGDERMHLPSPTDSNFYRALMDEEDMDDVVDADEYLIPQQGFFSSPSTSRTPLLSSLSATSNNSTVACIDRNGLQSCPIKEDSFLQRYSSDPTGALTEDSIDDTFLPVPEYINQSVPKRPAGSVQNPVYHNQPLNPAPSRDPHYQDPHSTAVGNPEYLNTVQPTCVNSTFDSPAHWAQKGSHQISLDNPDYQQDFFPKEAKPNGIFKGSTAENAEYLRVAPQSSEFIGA
Procedure: EGF receptor tyrosin-protein kinase activity was assessed in human A431 cells using as a substrate Poly(Glu:Tyr) at 10 µg/ml with a preincubation and incubation times of 15 and 60 min, respectively, at 25°C respectively in 50 mM HEPES pH 7.4, 20 mM MgCl2 and 0.2 mM Na3VO4. An ELISA quantification method of Poly[Glu:Tyr-P] was employed (Cheng, K. and Koland, J.G. J Biol Chem, 1996, 271, 311-318). Table 5. Inhibition of EGFR at 10 µM

[7] = system: tumor lung A549; assay: Tumor cell proliferation assay (alamarBlue); type: cell-based; details: Homo sapiens, A549
Procedure: (§2) Changes in cell proliferation were detected based on the ability of viable cells to cause alamarBlue® to change its oxidized (non-fluorescent, blue) to a reduced (fluorescent, red) form. The alamarBlue® reaction allows the quantification of cell proliferation and examination of the metabolic activity of viable cells. Test substances were examined for activity on the proliferation of human or murine tumor cell lines at assay concentrations from 0.01 to 100 µM.

[8] = system: tumor liver HepG2; assay: Tumor cell proliferation assay (alamarBlue); type: cell-based; details: Homo sapiens, HepG2
Procedure: as §2

[9] = system: tumor prostate LNCaP-FGC; assay: Tumor cell proliferation assay (alamarBlue); type: cell-based; details: Homo sapiens
Procedure: as §2

[10] = system: tumor ovary OVCAR-3; assay: Tumor cell proliferation assay (alamarBlue); type: cell-based; details: Homo sapiens, OVCAR-3
Procedure: as §2

[11] = system: tumor colon HCT-116; assay: Tumor cell proliferation assay (alamarBlue); type: cell-based; details: Homo sapiens, HCT-116
Procedure: as §2

[12] = system: tumor leukaemia K562; assay: Tumor cell proliferation assay (alamarBlue); type: cell-based; details: Homo sapiens, K562
Procedure: as §2

[13] = system: tumor brain U-87 MG; assay: Tumor cell proliferation assay (alamarBlue); type: cell-based; details: Homo sapiens, U-87 MG
Procedure: as §2

[14] = log D octanol/water distribution coefficient; type: physicochemical
Source text: Lipophilicity has been correlated to various drug properties, affecting permeability, absorption, distribution, plasma protein binding, metabolism, elimination, and toxicity. In contrast to honokiol and magnolol, compounds claimed in the invention, and more particularly those wherein the nitrogen atom in the group -O-CH(phenyl)-(CH2)p-NH-R^3 is protonated and the compound further comprises a pharmaceutically acceptable counter-anion present an optimal log Doctanol/water (range 0-3), indicating good aqueous solubility, permeability, oral absorption, and blood-brain barrier penetration. Experimental studies in murine models have confirmed the results.
Absorption, distribution and metabolism studies in vitro with selected examples were performed in order to determine pharmacokinetic parameters such as permeability (or absorption constant), intrinsic clearance (or metabolic clearance), and bioavailability. Physicochemical properties such as water solubility, pKa, log P, and log Doctanol/water, and in vitro experimental studies such as permeability in Caco2 cells, and protein binding in the mouse, stability in murine microsomes, chemical stability at different pH and stability in plasma were evaluated for the pharmacokinetic prediction in mice.

[15] = system: tumor melanoma B16-FO; assay: Tumor cell proliferation assay (alamarBlue); type: cell-based, murine; details: Mus musculus
Procedure: as §2

[16] = system: mice; assay: Formalin test (antinociceptive activity); type: in vivo; details: formalin test, dose 10 mg/Kg i.p.
Procedure: The chemical irritant formalin test is used as a chronic pain model in animals. The s.c. administration of formalin to the paw of a mouse produces a biphasic nociceptive behavioral response, an early response (0-5 min after injection) and a late response (20-30 min after injection) (Hunskaar, S., Fasmer, O.B., Hole, K. Formalin test in mice, a useful technique for evaluating mild analgesics. J Neurosci Methods, 1985 ;14(1):69-76).
Aspirine and paracetamol are included as external active references in early and late response. Table 12. Early and late response inhibition in the formalin test.

[17] = 5-LO, at 10 µM, read-out: % Inhibition

Which “Dose (mg / Kg) Early Response” value [1] does the source give for `CC(=O)Oc1ccccc1C(=O)O` [Aspirin] here?
The value was 200-400 p.o. mg / Kg.

And the “Dose (mg / Kg) Late Response” value [1]?
The value was 300 to 400 mg/kg.

With `C=CCc1ccc(OC(CCNC)c2ccccc2)c(-c2ccc(O)c(CC=C)c2)c1.Cl` (stereo not drawn) [Example 4, 3,5'-Diallyl-2'-[3-(methylamino)-1-phenylpropoxy]biphenyl-4-ol hydrochloride] as the compound, how does the MTD [2] read?
Its MTD is 30 mg/kg.

What about the inhibition at 10 µM ([3]; at 10 µM, human platelets) of the same compound?
The inhibition at 10 µM was 81%.

What about the inhibition at 10 µM [4, 17] of the same compound?
Its inhibition at 10 µM is 100%.

What about the inhibition at 10 µM ([5]; at 10 µM) of the same compound?
Its inhibition at 10 µM is 0%.

For `CCCc1ccc(O)c(-c2ccc(OC(CCNC)c3ccccc3)c(CCC)c2)c1` (stereo not drawn) [Example 6, 4'-[3-(Methylamino)-1-phenylpropoxy]-3',5-dipropylbiphenyl-2-ol hydrochloride], which inhibition at 10 µM [4, 17] is on record?
Its inhibition at 10 µM is 100%.

For `C=CCc1ccc(O)c(-c2cc(CC=C)ccc2O)c1` [Magnolol, reference compound], which inhibition at 10 µM [6] is on record?
The inhibition at 10 µM was -26%.

And the inhibition at 10 µM [3]?
Its inhibition at 10 µM is 21%.

What about the IC50 [7] of the same compound?
Its IC50 is 19 µM.

What about the IC50 [8] of the same compound?
The IC50 was 12 µM.

And the IC50 [9]?
The IC50 was 5.1 µM.

What about the IC50 [10] of the same compound?
The IC50 was 23 µM.

And the IC50 [11]?
The IC50 was 17 µM.

And the IC50 [12]?
The IC50 was 48 µM.

What about the IC50 [13] of the same compound?
Its IC50 is 48 µM.

What about the logDoctanol/water [14] of the same compound?
The logDoctanol/water was 5.25.

And the inhibition at 10 µM [4]?
Its inhibition at 10 µM is 67%.

What about the inhibition at 10 µM [5] of the same compound?
Its inhibition at 10 µM is 95%.

And the IC50 [15]?
Its IC50 is 28 µM.

What does the source list for `CN1CC[C@]23c4c5ccc(O)c4O[C@H]2[C@@H](O)C=C[C@H]3[C@H]1C5` [Morphine, reference compound]?
Early Response ([16]; early response 0-5 min): active; Late Response ([16]; late response 20-30 min): active

With `CC(=O)Nc1ccc(O)cc1` [Paracetamol] as the compound, how does the “Dose (mg / Kg) Early Response” value [1] read?
The value was 200-400 p.o. mg / Kg.

And the “Dose (mg / Kg) Late Response” value [1]?
Its value is 300 to 400 mg/kg.
